The record followed here is patent US20170190705A1, “Compositions and Methods for Inhibiting BMP” (THE BRIGHAM AND WOMAN'S HOSPITAL, INC., priority 2014, published 2017).

The target in series [1] is T1, ALK5 (Homo sapiens, UniProt P36897).
T1 construct: made in house
T1 sequence (P36897 34-503): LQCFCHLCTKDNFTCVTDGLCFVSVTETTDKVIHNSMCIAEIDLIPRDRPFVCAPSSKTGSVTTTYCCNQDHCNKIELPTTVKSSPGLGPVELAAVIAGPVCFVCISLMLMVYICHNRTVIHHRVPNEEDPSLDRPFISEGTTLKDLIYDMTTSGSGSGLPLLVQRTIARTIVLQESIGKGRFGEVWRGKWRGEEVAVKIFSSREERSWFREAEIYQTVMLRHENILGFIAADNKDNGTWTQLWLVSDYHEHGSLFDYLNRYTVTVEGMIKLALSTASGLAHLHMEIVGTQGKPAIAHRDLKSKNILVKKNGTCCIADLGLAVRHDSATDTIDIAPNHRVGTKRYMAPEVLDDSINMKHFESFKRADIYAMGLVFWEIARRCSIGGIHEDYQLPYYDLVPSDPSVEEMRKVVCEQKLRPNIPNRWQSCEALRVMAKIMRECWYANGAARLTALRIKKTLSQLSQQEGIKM
The series can be described thus: Thermal shift kinase assay ALK5. In kind it is binding. On the procedure:
(§1) Thermal melting experiments were performed using a Real Time PCR machine Mx3005p (Stratagene) with a protein concentration of 1-2 μM and 10 μM inhibitor as described by Niesen et al., Nat Protoc 2007, 2, 2212-21. Recombinant human kinases for DSF screening were prepared by SGC using the published methods of Sanvitale et al., PLoS One 2013, 8, e62721. The potency and selectivity of certain compounds of the invention based on thermal shift kinase and ligand induced transcriptional activity assays are shown in Table 2.

Series [2] concerns the target T2, caALK4 (Homo sapiens, UniProt P36896).
T2 sequence (P36896 1-505 T206D): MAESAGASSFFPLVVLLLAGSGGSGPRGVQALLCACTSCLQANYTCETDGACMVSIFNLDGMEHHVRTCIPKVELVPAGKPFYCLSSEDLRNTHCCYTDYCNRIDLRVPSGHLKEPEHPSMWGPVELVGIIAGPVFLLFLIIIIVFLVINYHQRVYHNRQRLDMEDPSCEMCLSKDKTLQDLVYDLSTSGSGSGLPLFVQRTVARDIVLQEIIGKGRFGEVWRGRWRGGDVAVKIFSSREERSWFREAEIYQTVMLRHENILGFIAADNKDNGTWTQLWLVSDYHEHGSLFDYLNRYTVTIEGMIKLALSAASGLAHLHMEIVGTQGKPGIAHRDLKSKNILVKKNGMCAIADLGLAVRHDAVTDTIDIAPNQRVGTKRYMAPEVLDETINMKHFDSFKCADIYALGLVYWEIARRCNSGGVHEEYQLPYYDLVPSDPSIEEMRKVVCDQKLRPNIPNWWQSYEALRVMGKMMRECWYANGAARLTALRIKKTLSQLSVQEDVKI
The series can be described thus: Luciferase reporter assay constitutively active ALK4. The settings on record: read-out: Cell Based Assay caALK4 IC50. The text has this: (§2) C2Cl2 […] cells stably transfected with BMP responsive element from the Id promoter fused to luciferase reporter gene (BRE-Luc) were generously provided by Dr. Peter ten Dijke (Leiden University Medical Center, NL) following the methods described by Zilberberg et al., BMC cell biology 2007, 8, 41-50. Human embryonic kidney 293T cells stably transfected with the TGF-β responsive element from the PAI-1 promoter fused to luciferase reporter gene (CAGA-Luc) were generously provided by Dr. Howard Weiner (Brigham and Women's Hospital, Boston, Mass.) following the methods described by Oida et al., PloS one 2011, 6, e18365. C2Cl2 Bre-Luc and 293T CAGA-Luc cells were seeded in DMEM supplemented with 2% FBS at 20,000 cells per well in tissue culture treated 96-well plates (Costar® 3610; Corning). The cells were incubated for 1 h (37° C. and 10% CO2) and allowed to settle and attach. Compounds of interest or DMSO were diluted in DMEM and added at final compound concentrations of 1 nM to 10 μM. Cells were then incubated for 30 min. Adenovirus expressing constitutively active BMP and TGF-β type I receptors (Ad.caALK1-5), generously provided by Dr. Akiko Hata (University of to California at San Francisco), were added to achieve a multiplicity of infection (MOI) of 100. Plates were incubated overnight at 37° C. Cell viability was assayed with an MIT (3-(4,5-dimethylthiazol-2-yl)-2,5-diphenyl tetrazolium bromide) colorimetric assay (Promega) per the manufacturer's instructions. Media was discarded, and firefly luciferase activity was measured (Promega) according to manufacturer's protocol. Light output was measured using a Spectramax L luminometer (Molecular Devices) with an integration time of one second per well. Data was normalized to 100% of incremental BRE-Luc activity due to adenoviruses specifying caALK1, 2, or 3, or the incremental CAGA-Luc activity due to adenoviruses specifying caALK4 or 5.
On the technique in general: In a reporter assay the amount or activity of a reporter protein is the signal.

The target of series [3] is T3, caALK1 (Homo sapiens, UniProt P37023, Q201D).
T3 construct: expressed in transfected cells; host or cells: C2C12 BRE-Luc cells infected with adenovirus (MOI 100)
T3 sequence (P37023 22-503 Q201D): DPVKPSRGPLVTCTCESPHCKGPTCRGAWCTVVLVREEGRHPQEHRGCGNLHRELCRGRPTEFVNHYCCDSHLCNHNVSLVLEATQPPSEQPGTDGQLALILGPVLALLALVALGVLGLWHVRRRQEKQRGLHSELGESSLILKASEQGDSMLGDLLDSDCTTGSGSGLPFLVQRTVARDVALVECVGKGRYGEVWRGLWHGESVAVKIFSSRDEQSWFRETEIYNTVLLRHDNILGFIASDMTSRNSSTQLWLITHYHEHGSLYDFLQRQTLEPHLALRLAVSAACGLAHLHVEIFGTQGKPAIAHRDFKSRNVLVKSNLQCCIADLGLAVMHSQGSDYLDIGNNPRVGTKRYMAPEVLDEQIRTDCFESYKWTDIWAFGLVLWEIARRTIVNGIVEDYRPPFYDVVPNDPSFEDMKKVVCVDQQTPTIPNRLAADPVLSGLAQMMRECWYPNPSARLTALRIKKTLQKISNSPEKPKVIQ
Kind of series: Luciferase reporter assay constitutively active ALK1. The settings on record: read-out: Cell Based Assay caALK1 IC50. On the procedure: The cells were incubated for 1 h (37° C. and 10% CO2) and allowed to settle and attach. Compounds of interest or DMSO were diluted in DMEM and added at final compound concentrations of 1 nM to 10 μM. Cells were then incubated for 30 min. Adenovirus expressing constitutively active BMP and TGF-β type I receptors (Ad.caALK1-5), generously provided by Dr. Akiko Hata (University of to California at San Francisco), were added to achieve a multiplicity of infection (MOI) of 100. Plates were incubated overnight at 37° C. Cell viability was assayed with an MIT (3-(4,5-dimethylthiazol-2-yl)-2,5-diphenyl tetrazolium bromide) colorimetric assay (Promega) per the manufacturer's instructions. Media was discarded, and firefly luciferase activity was measured (Promega) according to manufacturer's protocol. Light output was measured using a Spectramax L luminometer (Molecular Devices) with an integration time of one second per well. Data was normalized to 100% of incremental BRE-Luc activity due to adenoviruses specifying caALK1, 2, or 3, or the incremental CAGA-Luc activity due to adenoviruses specifying caALK4 or 5.

Series [4] concerns the target T4, caALK3 (Homo sapiens, UniProt P36894, Q233D).
T4 construct: expressed in transfected cells; host or cells: C2C12 BRE-Luc cells infected with adenovirus (MOI 100)
Kind of series: Luciferase reporter assay constitutively active ALK3. The settings on record: read-out: Cell Based Assay caALK3 IC50.
Excerpt: as §2

Series [5] addresses T5, ALK2 (Homo sapiens, UniProt Q04771, Q207D).
T5 construct: His tag (TEV-cleavable) (N, cleaved yes); made in house; host or cells: Sf9 insect cells (baculovirus)
T5 sequence (Q04771 201-499 Q207D): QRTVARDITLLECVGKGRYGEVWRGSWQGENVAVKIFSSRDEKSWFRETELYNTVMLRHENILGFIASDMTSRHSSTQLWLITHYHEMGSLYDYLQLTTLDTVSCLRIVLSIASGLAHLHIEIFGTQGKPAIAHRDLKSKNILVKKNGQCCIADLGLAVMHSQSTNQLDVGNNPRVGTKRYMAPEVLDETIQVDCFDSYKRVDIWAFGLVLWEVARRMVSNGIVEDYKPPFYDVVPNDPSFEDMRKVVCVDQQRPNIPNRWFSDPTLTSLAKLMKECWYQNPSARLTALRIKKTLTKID
The series can be described thus: Thermal shift kinase assay ALK2. In kind it is binding. The settings on record: for ΔTmDiff.: ALK2 minus ALK5. The method, then:
as §1

The test system of series [6] is HePG2 hepatocarcinoma cells. In kind it is cell-based. The settings on record: human. On the procedure:
The cells were incubated for 2 h (37° C. and 5% CO2) and allowed to settle and attach. Compounds of interest or DMSO were diluted in DMEM and added at final compound concentrations of 1 μM, 10 μM, and 100 μM. Cells were incubated for 4 hours and 24 hours after which the media was discarded. Cells were lysed by adding 30 μL of passive lysis buffer (Promega) and shaken at RT for 15 min. Cell viability was determined by quantifying the ATP present in each well by adding 10 μL of CellTiter-Glo (Promega) per well and measuring the light output Spectramax L luminometer (Molecular Devices) with an integration time of one second per well. Data was normalized to 100% viability for cells receiving only DMSO without any concurrent compound.

In series [7] the test system is TGFβ1. Kind of series: Ligand induced transcriptional activity assay TGFβ1 (CAGA-Luc). The settings on record: Homo sapiens; cell-based signaling inhibition.
In series [8] the test system is BMP6. Kind of series: Ligand induced transcriptional activity assay BMP6 (BRE-Luc). In kind it is cell-based. The settings on record: for IC50: cell-based signaling inhibition, read-out: BMP6 IC50.

Where two headings read alike, the source gives them in different places.

T4 sequence (P36894 24-532 Q233D): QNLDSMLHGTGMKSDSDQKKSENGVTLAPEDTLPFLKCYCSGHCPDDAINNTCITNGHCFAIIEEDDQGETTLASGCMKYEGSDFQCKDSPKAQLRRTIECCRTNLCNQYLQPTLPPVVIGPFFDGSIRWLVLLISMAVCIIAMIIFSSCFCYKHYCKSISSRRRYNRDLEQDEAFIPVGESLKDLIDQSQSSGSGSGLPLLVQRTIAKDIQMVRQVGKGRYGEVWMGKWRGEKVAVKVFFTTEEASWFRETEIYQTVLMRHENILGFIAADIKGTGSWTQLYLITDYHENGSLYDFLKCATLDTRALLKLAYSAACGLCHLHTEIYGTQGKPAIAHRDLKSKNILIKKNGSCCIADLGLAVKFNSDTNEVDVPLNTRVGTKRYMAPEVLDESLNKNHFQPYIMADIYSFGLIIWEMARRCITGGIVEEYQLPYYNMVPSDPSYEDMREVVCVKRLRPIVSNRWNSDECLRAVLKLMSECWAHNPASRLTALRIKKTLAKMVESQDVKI

One may read the ΔTm as the change in melting temperature against a reference sample. The IC50 is the midpoint of a concentration-inhibition curve. Take `COc1cc(-c2cncc(-c3ccc(N4CCNCC4)cc3)c2)cc(OC)c1OC` [Compound 26, 1-(4-(5-(3,4,5-trimethoxyphenyl)pyridin-3-yl)phenyl)piperazine]: the shift in melting temperature (ΔTm) at 10 µM was 10.4 °C in series [1] (10 μM inhibitor) and 14 °C in series [5] (10 μM inhibitor). Moreover, the “ΔT ALK5” value in series [1] (Table 6) amounted to 10.4 °C. Besides, the figures for the IC50 in series [2], in series [3] and in series [4] were 427 nM, 202 nM and 105 nM, respectively. The ΔTmDiff. in series [5] stood at 3.7. In series [5] (Table 6), the “ΔT ALK2” value was 14.1 °C. Further, the “ΔT Diff.” value in series [5] (Table 6, ALK2 minus ALK5) is 3.7 °C. In addition, the Cell viability came out at 96% in series [6] (4 h, 1 μM); 103% in series [6] (4 h, 10 μM); 103% in series [6] (24 h, 1 μM); 80% in series [6] (24 h, 10 μM).

For `COc1cc(-c2cc(-c3ccc(O)cc3)cnc2N)cc(OC)c1OC` [Compound 11, 4-(6-Amino-5-(3,4,5-trimethoxyphenyl)pyridin-3-yl)phenol], the IC50 in series [7] turned out to be 580 ± 50 nM; in series [8], 20 ± 1 nM. Besides, the ΔTmDiff. in series [5] was found to be 1.5. Further, the Cell viability in series [6] (4 h, 1 μM) is listed as 95%; in series [6] (4 h, 10 μM), 98%; in series [6] (4 h, 100 μM), 91%; in series [6] (24 h, 1 μM), 99%; in series [6] (24 h, 10 μM), 89%; in series [6] (24 h, 100 μM), 82%. For the same molecule, the “Fold Select.” value in series [8] (TGFβ1 vs BMP6) is given as 28.

`COc1cc(-c2cnc(N)c(-c3cc(OC)c(OC)c(OC)c3)c2)ccc1O` [Compound 12, 4-(6-amino-5-(3,4,5-trimethoxyphenyl)pyridin-3-yl)-2-methoxyphenol]: the IC50 in series [7] was determined as 2300 nM; in series [8], 90 ± 30 nM. Besides, the ΔTmDiff. in series [5] is 1.7. In addition, the Cell viability is listed as 96% in series [6] (4 h, 1 μM); 103% in series [6] (4 h, 10 μM); 93% in series [6] (4 h, 100 μM); 97% in series [6] (24 h, 1 μM); 88% in series [6] (24 h, 10 μM); 89% in series [6] (24 h, 100 μM).
